{
  "source": "patent US11787850B2",
  "about": "“Peptidic TGF-beta antagonists” (priority 2015, dated 2023)",
  "key": {"[1]": {"system": "bleomycin-induced skin fibrosis", "assay": "Bleomycin-induced skin fibrosis (scleroderma) mouse model", "assay_type": "in vivo", "method": "Wild type mice were treated with bleomycin ([…]) to induce skin fibrosis or PBS (negative control). Mice were treated with CD109 ([…]), P16 ([…]), or PBS by 100 μL subcutaneous injection every other day for 28 days for a total of 14 injections.\n(§1) Mice were injected intradermally with bleomycin (5 mg) in […] PBS or PBS alone every second day for 28 days. Mice were co-injected without or with 1.0 mg recombinant CD109 protein or P16 peptide every second day for 28 days (14 mg total). Skin tissue was harvested and immunohistochemical analysis was performed for the detection of Fibronectin, α-sma, CTGF and Type-1 Collagen. Representative images of sections of skin derived from CD109 and p16 treated mice on day 28 after initial bleomycin or PBS treatment are shown. A total of 4-6 different mice per treatment group were analyzed. Original magnification x 20.\nas §1, with “phospho-Smad2, phospho-Smad1” for “Fibronectin, α-sma, CTGF”, “TGF-β levels.” for “Type-1 Collagen.”"}, "[2]": {"system": "cancer stem cells (CD133 positive cells), epidermoid A431", "assay": "Flow cytometry of CD133 positive cells, A431", "assay_type": "cell-based", "details": "10 nM, 100 pM TGF-b1, 24 hours (FIG. 39)", "method": "(§2) A431 cancer cells (8000 cells) were seeded on a BioCoat™ Matrigel® Invasion Chamber and treated with 10 nM of P16.2 (negative peptide control), P16 or PA in the absence or presence of 100 pM TGF-b, followed by 24 hrs of incubation. Invasive cells (in the lower chambers) were stained by crystal violet dye, photographed and counted. Representative photos (A) and statistical plots of invasion (B) are shown. The data are shown as mean±SD of the number of invasive cells for three independent experiments. **P<0.01 and ***P<0.001 as compared with controls. […] Squamous cell carcinoma (epidermoid A431 and head and neck FaDu) cells were stimulated with 100 pM of TGF-b1, then treated with 10 nM of peptide 16.2, P16, PA or CD109 for 24 hours. Cells were analysed by Flow cytometry and CD133 positive cell population, which represent cancer stem cell population, were quantified."}, "[3]": {"system": "cancer stem cells (CD133 positive cells), head and neck FaDu", "assay": "Flow cytometry of CD133 positive cells, FaDu", "assay_type": "cell-based", "details": "10 nM, 100 pM TGF-b1, 24 hours (FIG. 39)", "method": "as §2"}, "[4]": {"details": "co-injected with bleomycin every second day for 28 days (FIG. 37)"}},
  "data": [
    {"substance": "Recombinant CD109: recombinant CD109 protein", "values": [
      {"measurement": "SMAD1 phosphorylation in skin (immunohistochemistry)", "setting": "[1]; [4]", "result": "enhancing"},
      {"measurement": "SMAD2 phosphorylation in skin (immunohistochemistry)", "setting": "[1]; [4]", "result": "reduces"},
      {"measurement": "TGF-β expression in skin (immunohistochemistry)", "setting": "[1]; [4]", "result": "reduces"},
      {"measurement": "extracellular matrix production (Fibronectin, α-sma, CTGF, Type-1 Collagen, immunohistochemistry)", "setting": "[1]; co-injected with bleomycin every second day for 28 days, skin on day 28 (FIG. 36)", "result": "reduces"},
      {"measurement": "number of cancer stem cells (CD133 positive cells), A431", "setting": "[2]", "result": "inhibit"},
      {"measurement": "number of cancer stem cells (CD133 positive cells), FaDu", "setting": "[3]", "result": "inhibit"}
    ]}
  ]
}
